Measured values published in PMC2819846 (Mutation research, 2008).
Like-named read-outs stand apart in the source and are kept apart here.

Columns and labels:
[1] = system: DNA from Salmonella TA100; experiment: Abasic sites by aldehydic-site assay in DNA of treated TA100; type: cell-based; settings: DMSO 5.9 ± 0.33
[2] = system: DNA from Salmonella TA100; experiment: Stable DNA adducts by 32P-postlabeling in DNA of treated TA100; type: cell-based; settings: DMSO 0.024 ± 0.000
[3] = system: Salmonella TA98; experiment: Salmonella plate-incorporation mutagenicity assay, strain TA98, with S9 mix; type: cell-based
[4] = system: Salmonella TA100; experiment: Salmonella plate-incorporation mutagenicity assay, strain TA100; type: cell-based
[5] = system: strain TA100; type: cell-based, Salmonella; settings: TA100 liquid-suspension; for Rev/10^6 survivors: DMSO 0.8; for Percent survival: DMSO 100
[6] = system: Salmonella TA104; experiment: Salmonella plate-incorporation mutagenicity assay, strain TA104, with S9 mix; type: cell-based

`O[C@@H]1C=Cc2c(ccc3ccc4sccc4c23)[C@H]1O` (racemic) [P[3,4-b]T 8,9-diol, (±)-trans-8,9-Dihydrophenanthro[3,4-b]thiophene 8,9-diol] was tested, and the “Abasic sites/10^5 nucleotides ± S.E” value ([1]; TA100, 2 µg/ml) was 2.9 ± 0.23 sites/10^5 nucleotides, the “Abasic sites/10^5 nucleotides ± S.E” value ([1]; TA100, 5 µg/ml) was 4.7 ± 0.25 sites/10^5 nucleotides and the “Stable adducts/10^8 nucleotides ± S.E” value ([2]; TA100, 2 µg/ml) was 0.170 ± 0.045 adducts/10^8 nucleotides. For the same compound, the “Stable adducts/10^8 nucleotides ± S.E” value ([2]; TA100, 5 µg/ml) was 0.750 ± 0.045 adducts/10^8 nucleotides, the Rev/plate ([3]; TA98 +S9, Test 1, 2 µg/plate, zero-dose 33/40/39) was 61 rev/plate and the Rev/plate ([3]; TA98 +S9, Test 1, 5 µg/plate, zero-dose 33/40/39) was 87 rev/plate. For the same compound, the Rev/plate ([3]; TA98 +S9, Test 1, 10 µg/plate, zero-dose 33/40/39) was 94 rev/plate, the Rev/plate ([3]; TA98 +S9, Test 1, 20 µg/plate, zero-dose 33/40/39) was 156 rev/plate and the Rev/plate ([3]; TA98 +S9, Test 1, 40 µg/plate, zero-dose 33/40/39) was 285 rev/plate. The Rev/plate ([3]; TA98 +S9, Test 1, 80 µg/plate, zero-dose 33/40/39) was 412 rev/plate, the Rev/plate ([3]; TA98 +S9, Test 2, 10 µg/plate, zero-dose 43/41/30) was 104/110 and the Rev/plate ([3]; TA98 +S9, Test 2, 20 µg/plate, zero-dose 43/41/30) was 124/134. The Rev/plate ([3]; TA98 +S9, Test 2, 40 µg/plate, zero-dose 43/41/30) was 276/244, the Rev/plate ([3]; TA98 +S9, Test 2, 80 µg/plate, zero-dose 43/41/30) was 381/323 and the Rev/plate ([3]; TA98 +S9, Test 3, 10 µg/plate, zero-dose 49/50/50) was 143/142. The Rev/plate ([3]; TA98 +S9, Test 3, 20 µg/plate, zero-dose 49/50/50) was 193/190, the Rev/plate ([3]; TA98 +S9, Test 3, 40 µg/plate, zero-dose 49/50/50) was 315/359 and the Rev/plate ([3]; TA98 +S9, Test 3, 80 µg/plate, zero-dose 49/50/50) was 448/459. For the same compound, the “Mutagenic potency, Revertants/µg ± S.E., TA98” value ([3]; plate-incorporation, +S9) was 5.6 ± 0.8 rev/µg, the “Mutagenicity call TA98” value ([3]; plate-incorporation, +S9) was “(+) (Called mutagenic (+) based on showing reproducible, dose-related increases in rev/plate that reached or exceeded 2-fold relative to zero-dose controls)” and the Rev/plate ([4]; TA100 +S9, Test 1, 2 µg/plate, zero-dose 99/110/110) was 326 rev/plate. For the same compound, the Rev/plate ([4]; TA100 +S9, Test 1, 5 µg/plate, zero-dose 99/110/110) was 554 rev/plate, the Rev/plate ([4]; TA100 +S9, Test 1, 10 µg/plate, zero-dose 99/110/110) was 755 rev/plate and the Rev/plate ([4]; TA100 +S9, Test 1, 20 µg/plate, zero-dose 99/110/110) was 995 rev/plate. For the same compound, the Rev/plate ([4]; TA100 +S9, Test 1, 40 µg/plate, zero-dose 99/110/110) was 992 rev/plate, the Rev/plate ([4]; TA100 +S9, Test 1, 80 µg/plate, zero-dose 99/110/110) was 847 rev/plate and the Rev/plate ([4]; TA100 +S9, Test 2, 0.5 µg/plate, zero-dose 84/78/80) was 80/94. For the same compound, the Rev/plate ([4]; TA100 +S9, Test 2, 1 µg/plate, zero-dose 84/78/80) was 140/116, the Rev/plate ([4]; TA100 +S9, Test 2, 2.5 µg/plate, zero-dose 84/78/80) was 268/224 and the Rev/plate ([4]; TA100 +S9, Test 2, 5 µg/plate, zero-dose 84/78/80) was 352/315. For the same compound, the Rev/plate ([4]; TA100 +S9, Test 3, 0.5 µg/plate, zero-dose 127/118/125) was 147/151, the Rev/plate ([4]; TA100 +S9, Test 3, 1 µg/plate, zero-dose 127/118/125) was 178/187 and the Rev/plate ([4]; TA100 +S9, Test 3, 2.5 µg/plate, zero-dose 127/118/125) was 347/430. The Rev/plate ([4]; TA100 +S9, Test 3, 5 µg/plate, zero-dose 127/118/125) was 545/614, the “Mutagenic potency, Revertants/µg ± S.E., TA100” value ([4]; plate-incorporation, +S9) was 80.0 ± 13.2 rev/µg and the “Mutagenicity call TA100” value ([4]; plate-incorporation, +S9) was “(+) (Called mutagenic (+) based on showing reproducible, dose-related increases in rev/plate that reached or exceeded 2-fold relative to zero-dose controls)”. For the same compound, the “Fold increase in mutant frequency relative to DMSO-treated cells” value ([5]; 2 µg/ml) was 2.5 fold, the “Rev/10^6 survivors” value ([5]; 2 µg/ml) was 2.0 Rev/10^6 survivors and the Percent survival ([5]; 2 µg/ml) was 91%. The “Fold increase in mutant frequency relative to DMSO-treated cells” value ([5]; 5 µg/ml) was 2.8 fold, the “Rev/10^6 survivors” value ([5]; 5 µg/ml) was 2.2 Rev/10^6 survivors and the Percent survival ([5]; 5 µg/ml) was 63%. For the same compound, the Rev/plate ([6]; TA104 +S9, Test 2, 0.5 µg/plate, zero-dose 276/260/270) was 486/465, the Rev/plate ([6]; TA104 +S9, Test 2, 1 µg/plate, zero-dose 276/260/270) was 213/673 and the Rev/plate ([6]; TA104 +S9, Test 2, 2.5 µg/plate, zero-dose 276/260/270) was 1311/1300. For the same compound, the Rev/plate ([6]; TA104 +S9, Test 2, 5 µg/plate, zero-dose 276/260/270) was 1723/1755, the Rev/plate ([6]; TA104 +S9, Test 3, 0.5 µg/plate, zero-dose 402/395/336) was 566/525 and the Rev/plate ([6]; TA104 +S9, Test 3, 1 µg/plate, zero-dose 402/395/336) was 754/785. The Rev/plate ([6]; TA104 +S9, Test 3, 2.5 µg/plate, zero-dose 402/395/336) was 1235/1287, the Rev/plate ([6]; TA104 +S9, Test 3, 5 µg/plate, zero-dose 402/395/336) was 1508/1620 and the “Mutagenic potency, Revertants/µg ± S.E., TA104” value ([6]; plate-incorporation, +S9) was 369 ± 28 rev/µg. For the same compound, the “Mutagenicity call TA104” value ([6]; plate-incorporation, +S9) was “(+) (Called mutagenic (+) based on showing reproducible, dose-related increases in rev/plate that reached or exceeded 2-fold relative to zero-dose controls)”.
